# Experimental data taken from patent US20150366839A1, “Schisantherin A for the treatment of neurodegenerative diseases” (priority 2014, published 2015).
# Legend:
# [1] = SchiA pharmacokinetics study in plasma; type: in vivo, Sprague-Dawley rats; settings: microemulsion 30 mg/kg
# Method: Male Sprague-Dawley rats (SD rats) with body weight between 220 and 250 g and age between 6 and 7 weeks were supplied by Guangdong Medical Experiment Animal Center (Guangzhou, China). SchiA was prepared as microemulsion for i.v. and p.o. at 30 mg/kg. The concentration of SchiA microemulsion was 4.9 mg/ml. After administration of SchiA, blood samples were collected at 0.033, 0.167, 0.5, 1, 2, 4, 8, 12, 24 and 36 h, respectively. Plasma samples were obtained after centrifugation of the collected blood samples at 10,000 rpm for 5 min. Subsequently, in 100 μl plasma which was taken from the supernatant, 200 μl of 50% acetonitrile and 50% methanol were added. After vortexing for 20 s and centrifuging at 12,000 rpm for 10 min, the supernatant was collected and filtered through a 0.22 μm membrane, of which 20 μl was injected into the chromatographic system for analysis.
# Quantitative analysis of SchiA was completed on an Agilent series 1260 HPLC apparatus (Agilent Technologies, Santa Clara, Calif., USA) equipped with a vacuum degasser, a quaternary pump, a manual sampler and an ultraviolet detector. RP Phenonenex C-18 column (250 mm×4.6 mm, 5 μm) was used to separate at 35° C. with a mobile phase of water and methanol (83:17, v/v). The flow rate was 1 ml/min. The monitoring wavelength of SchiA was 230 nm.
# And then non-compartmental model of DAS 2.0 program was chosen to calculate the major pharmacokinetic parameters.
# SH-SY5Y cells = test: MTT neuroprotection against MPP+-induced cell damage; type: cell-based
# Method: Human neuroblastoma SH-SY5Y cells were purchased from the American Type Culture Collection (ATCC, Manassas, Va., USA) and cultured in a humidified 5% (v/v) CO2 atmosphere in 37° C. in Dulbecco's Modified Eagle Medium (DMEM) (Life technologies, NY, USA) supplemented with 10% FBS, 1% penicillin (100 U/mL) and streptomycin (100 μg/mL). All experiments were carried out 48 h after the cells were seeded.
# In another study, SH-SY5Y cells were seeded in 96-well plates (1×10^4 cells/well) for 48 h. SH-SY5Y cells were pre-treated with different concentrations of the five lignans for 12 h and the cell viability was checked by MTT assay. SH-SY5Y cells were pre-treated with different concentrations of the five lignans for 12 h and then exposed to 2 mM MPP or vehicle for 36 h. Cells were incubated at 37° C. for 4 h in 0.5 mg/mL MTT solution (prepared in serum free DMEM medium). The medium was then discarded and 100 μL of DMSO was added to each well to dissolve the violet-formazan crystals. The absorbance at 570 nm with 655 nm as a reference wavelength was measured by a multi-label counter (Wallac VICTOR3TMV, Perkin Elmer, Netherlands). Cell viability was expressed as a percentage of the value of the cells without MPP treatment. The LC50 and EC50 were calculated by GraphPad Prism V5.0 (GraphPad Software, Inc., San Diego, Calif.).
# To evaluate the cytotoxicity of five selected lignans of S. chinensis, SH-SY5Y cells were treated with various concentrations of the tested compounds for 12 h and the cell viability was measured using the MTT assay. […] To further study the neuroprotective activities of the five lignans in vitro, cells were treated with various concentrations of the tested compounds for 12 h before exposed to MPP^+. […] Values represent mean±S.D. ###P<0.005 versus control group; *p<0.05, **p<0.01 and *** p<0.005 versus MPP group. […] The therapeutic index of SchiA and SC were 14.9 and 8.8, respectively.
# The inventors also investigated the contribution of the PI3K/Akt pathway in the neuroprotective effects of SchiA. The inventors measured phosphorylation-Akt (p-Akt) levels after pre-treated with 60 μM SchiA for 12 h and then exposed to 2 mM MPP for another 36 h. […] And MPP^+-induced down-regulation of Akt expressions was inhibited by SchiA treatment. […] To further validate whether the activation of PI3K/Akt signaling pathway, the inventors determined the blocking effect of PI3K/Akt inhibitor such as AKT inhibitor IV on the in vitro neuroprotective effect of SchiA. SH-SY5Y cells were pre-incubated with Akt inhibitor IV (2 μM) for 1 h and then treated with SchiA for 12 h. Drug-treated cells were further treated with 2 mM MPP for another 36 h, MTT assay was used to determinate cell viability.
# [2] = system: intracellular ROS in SH-SY5Y cells; test: 6-OHDA-induced ROS accumulation (CM-H2DCFDA); type: cell-based, Human
# Method: SH-SY5Y cells seeded at 96-well plates (1×10^4 cells/well) were incubated with 5 μM fluorescent probe CM-H2DCFDA at 37° C. for 20 min after treatment with SchiA or 6-OHDA. The fluorescence intensity was determined by multi-label counter at wavelengths of excitation at 493 nm and emission at 522 nm.
# The generation of excess ROS by auto-oxidation of 6-OHDA, considered to be involved in 6-OHDA-induced cellular injury (Cohen and Heikkila 1974). Therefore, to examine whether SchiA prevented the production of ROS from 6-OHDA, the accumulation of ROS was measured by fluorescent probe CM-H2DCFDA in SH-SY5Y cells. The fluorescence intensity of CM-H2DCFDA was measured after SH-SY5Y cell were pretreated with different concentrations of SchiA for 12 h and then treated with or without 400 μM 6-OHDA for 4 h. The results of FIG. 3 are expressed as a percentage of that of the control group. ###P<0.005 versus control group; *p<0.05, **p<0.01 and *** p<0.005 versus 6-OHDA group.
compound,measurement,setting,value
"COc1cc2c(c(OC)c1OC)-c1c(cc3c(c1OC)OCO3)C[C@H](C)[C@](C)(O)[C@H]2OC(=O)c1ccccc1 [SchiA, Schisantherin A]",t1/2,[1]; i.v.,15.88 ± 1.82 h
same,Tmax,[1]; rat plasma,1.33 ± 0.58 h
same,t1/2,[1]; p.o.,16.543 ± 6.95 h
same,EC50,"SH-SY5Y cells; pre-treated 12 h, then 2 mM MPP+ 36 h",8.1 µM
same,protection against MPP+-induced cell damage (cell viability),SH-SY5Y cells; various concentrations 12 h before MPP+,protect against MPP^+-induced cell damage in a dose-dependent manner
same,6-OHDA-induced intracellular ROS level,"[2]; 3, 6, 12, 25 and 50 μM 12 h, then 400 μM 6-OHDA 4 h",significantly reduced
same,"intracellular ROS levels, compound alone",[2]; without 6-OHDA,no obvious effect
